Broadly, the IC50 is the point on the concentration scale where inhibition reaches its midpoint. By half-life is commonly meant the time needed for the level to fall by half in the phase considered.

The record followed here is paper PMC10525516, “Novel NADPH Oxidase-2 Inhibitors as Potential Anti-Inflammatory and Neuroprotective Agents” (Antioxidants, 2023).

One data set addresses T1, Nox2 (Homo sapiens, UniProt P04839).
T1 construct: endogenous in cells
T1 sequence (P04839 2-570 limits assumed): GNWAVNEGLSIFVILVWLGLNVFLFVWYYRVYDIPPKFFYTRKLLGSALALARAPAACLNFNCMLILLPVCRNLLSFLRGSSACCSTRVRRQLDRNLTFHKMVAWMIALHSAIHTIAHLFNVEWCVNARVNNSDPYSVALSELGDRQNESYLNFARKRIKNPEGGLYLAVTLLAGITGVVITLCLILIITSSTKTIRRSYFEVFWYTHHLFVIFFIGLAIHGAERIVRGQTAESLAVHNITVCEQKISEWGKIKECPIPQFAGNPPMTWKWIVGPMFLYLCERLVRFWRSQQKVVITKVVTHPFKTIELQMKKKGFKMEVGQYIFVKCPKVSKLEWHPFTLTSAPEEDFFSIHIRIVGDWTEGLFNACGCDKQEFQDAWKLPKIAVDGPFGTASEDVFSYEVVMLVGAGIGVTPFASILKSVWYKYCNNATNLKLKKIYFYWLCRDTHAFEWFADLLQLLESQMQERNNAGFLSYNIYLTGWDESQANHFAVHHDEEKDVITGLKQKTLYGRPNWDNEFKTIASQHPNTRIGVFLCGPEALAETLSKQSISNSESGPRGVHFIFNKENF
T1 sequence (P13498 2-195 partner limits assumed): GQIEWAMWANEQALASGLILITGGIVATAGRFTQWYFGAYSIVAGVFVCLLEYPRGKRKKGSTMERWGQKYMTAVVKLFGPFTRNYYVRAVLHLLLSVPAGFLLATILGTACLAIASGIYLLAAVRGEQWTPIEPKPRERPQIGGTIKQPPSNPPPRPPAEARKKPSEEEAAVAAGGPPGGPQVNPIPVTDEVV
The experiment in a line: Amplex Red/HRP assay of H2O2 production by PMA-activated dHL60 cells. Format: cell-based. As to conditions: PMA (1 µM)-activated dHL60 cells, 30 min preincubation; read-out: IC50, inhibition of H2O2 production, Amplex Red Assay. The protocol:
Human promyelocytic leukemia HL60 cells (Sigma-Aldrich) were grown in RPMI 1640 medium (Gibco, 11875-093, Billings, MT, USA) supplemented with 10% FBS (Omega Scientific (Tarzana, CA, USA)), 100 units/mL penicillin, and 100 µg/mL streptomycin, and were incubated at 37 °C and 5% carbon dioxide (CO2). For differentiation to neutrophil-like cells, HL60 cells were pelleted and resuspended in fresh media containing 1 µM of all trans-retinoic acid and incubated for four to five days. Nox2 activation was achieved by treating differentiated HL60 (dHL60) cells with 1 µM PMA [24]. Human leukemia monocytic cells, THP-1, were grown in RPMI 1640 medium + GlutaMAX^TM (Gibco, 61870-036) and supplemented with 10% FBS, 10 mM HEPES, and 1 mM sodium pyruvate and incubated at 37 °C in 5% CO2 environment. To induce differentiation into macrophages, THP-1 cells were treated with PMA (100 ng/mL) for 48 h. To test the efficacy of Nox2 inhibitors, treatment was performed with or without the inhibitor, along with PMA [35].
Plate reader-based analyses of the production of O2^•− and H2O2 by PMA-activated dHL60 cells were performed according to a published protocol with minor modifications. Briefly, for the treatment of dHL60 cells with different concentrations of the compounds, 0.5 mL deep-well 96-well plates were used to dispense and store aliquots of their 10 mM DMSO solutions. Using a Multidrop™ PicoIT dispenser (Thermo Scientific), different volumes of the solutions of candidate Nox inhibitors (10 or 50 mM in DMSO) were injected into the bottom of 0.5 mL V-bottom 96-well plates; then, they were sealed with aluminum foil (VWR, Batavia, IL, USA) using a semiautomatic thermal sealer (BT LabSystems, St. Louis, MO, USA) and stored at −20 °C to reduce freeze-thawing the solutions. The plates with inhibitors were allowed to come to room temperature before the addition of the cell suspensions. dHL60 cells were pelleted and resuspended in HBSS (Invitrogen, Waltham, MA, USA) supplemented with 25 mM HEPES (pH 7.4) and 100 µM DTPA to a cell density of 2 × 10^5 cells/mL. dHL60 cells were added to the V-bottom plates at a volume of 210 µL/well. Next, cells were incubated with inhibitors for 30 min at 37 °C in a CO2-free incubator under ambient oxygen and then transferred to black, clear-bottom 96-well plates (200 µL/well) after incubation. Freshly prepared PMA plus probe solutions in HBSS (5× concentrated, 50 µL/well) included PMA (5 µM) with CBA (500 µM) or with Amplex Red (250 µM) plus HRP (0.5 U/mL) for H2O2 detection, or with HE (50 µM) plus DNA (0.5 mg/mL) for O2^•− detection. Once probes + PMA were added, plates were sealed with sealing film and immediately placed in the pre-warmed plate readers (37 °C). Fluorescence intensities were monitored kinetically from the bottom of the plates every 1.3 min for a period of 2 h using Beckman Coulter (Brea, CA, USA) DTX880 and BMG Labtech (Ortenberg, Germany) FLUOstar Omega plate readers. DMSO alone and DPI (10 µM) were used as negative and positive controls, respectively. […] The IC50 values were determined using at least five independent measurements, each consisting of technical quadruplicates per concentration.

A further data set has as its system dHL60 cells. The experiment in a line: Cell Titer Glo 2.0 cytotoxicity (ATP) assay in PMA-stimulated dHL60 cells. The data set is classed as cell-based, human. The protocol: The cytotoxicity of the inhibitors was tested by measuring the amount of ATP in the wells containing PMA-stimulated dHL60 cells and the candidate inhibitors. Cells were prepared as described for the plate reader-based measurements for H2O2, except that the cells were maintained with the inhibitors in a CO2-free incubator at 37 °C for 2.5 h to mirror the conditions during the fluorescence-based monitoring of H2O2 described above. After incubation, cells (100 µL/well) were transferred to white 96-well plates (Greiner, Kremsmünster, Austria), and the total cellular ATP amount was determined using the Cell Titer Glo 2.0 (Promega) cytotoxicity assay (100 µL/well) by measuring the luminescence intensity using a Beckman Coulter DTX880 plate reader.
A general note: Cellular ATP, detected with luciferase, serves as a proxy for viable cell number.

Data set [1] can be described thus: In vivo pharmacokinetics / brain penetration, species not specified (rodent models). Particulars: rat, intraperitoneal, 20 mg/kg, rodent models. The text has this:
Rapid metabolism and the inability to cross the BBB represent major obstacles in the application of bioactive agents in neurodegenerative diseases. Based on the premise that Nox2 plays a major role in oxidative damage and exacerbates neurodegenerative diseases, we envision applications of brain-permeable Nox2 inhibitors in mechanistic studies in vivo, and, long-term, in the development of novel therapeutic strategies. Therefore, we performed in vivo pharmacokinetics studies to determine the time profile of plasma concentration and accumulation of TG15-132 in the brain tissue of Sprague Dawley rats and C57BL6 mice.

SMILES strings stand for the structures. A value given as a limit tells only on which side of the number the result lay.

Turning to `CN(C)CCCn1c(SCCc2c[nH]c3ccccc23)nc2ccc(F)cc2c1=O` [TG15-132], the IC50 at Nox2 stood at 7.9 ± 3 µM; in the data set with dHL60 cells (Homo sapiens, Cell Titer Glo 2.0, PMA-stimulated dHL60 cells, 2.5 h with inhibitor, unit not printed in Table 3, taken from text, read-out: IC50, Viability Assay) it was 34.5 ± 6 µM. Besides, the “cell viability at concentrations showing Nox2 inhibitory potency” value in the data set with dHL60 cells (dHL60 cells, Figure 3D,E) is given as “no decrease in cell viability”. Further, in data set [1] (Sprague Dawley (rat), C57BL6 (mouse), mouse, brain, read-out: brain-to-plasma ratio (abstract)), the Kp is over 5. In addition, the half-life in data set [1] (Sprague Dawley, plasma, read-out: plasma half-life (abstract) (converted)) was 5.6 h.
